These results are taken from patent publication US7998965B2, “Glutamate aggrecanase inhibitors” (Wyeth LLC, priority 2005, dated 2011).

Test [1] concerns the target T1, purified recombinant human Aggrecanase-1 (rAgg1) (Homo sapiens, UniProt O75173).
T1 sequence (O75173 213-837): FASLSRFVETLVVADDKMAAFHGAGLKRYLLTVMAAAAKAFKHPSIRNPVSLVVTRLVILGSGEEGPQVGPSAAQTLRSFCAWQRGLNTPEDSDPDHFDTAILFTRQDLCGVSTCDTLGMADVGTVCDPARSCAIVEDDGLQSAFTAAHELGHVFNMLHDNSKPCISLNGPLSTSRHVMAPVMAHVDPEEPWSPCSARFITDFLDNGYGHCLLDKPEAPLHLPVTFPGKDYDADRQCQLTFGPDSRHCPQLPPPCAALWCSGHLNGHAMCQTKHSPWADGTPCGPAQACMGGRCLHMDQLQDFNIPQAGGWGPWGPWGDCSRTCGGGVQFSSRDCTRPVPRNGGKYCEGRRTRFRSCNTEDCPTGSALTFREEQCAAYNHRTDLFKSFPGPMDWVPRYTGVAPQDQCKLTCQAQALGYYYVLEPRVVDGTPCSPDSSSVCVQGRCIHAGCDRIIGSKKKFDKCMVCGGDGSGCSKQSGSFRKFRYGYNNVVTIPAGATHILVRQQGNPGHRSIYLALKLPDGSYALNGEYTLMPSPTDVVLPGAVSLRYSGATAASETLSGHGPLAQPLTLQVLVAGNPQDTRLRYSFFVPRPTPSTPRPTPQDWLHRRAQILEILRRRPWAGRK
The test can be described thus: In vitro fluorescence screen for Aggrecanase-1 inhibitors. The format is biochemical. Particulars: for IC50: read-out: Agg1 IC50.

The target in test [2] is T2, purified recombinant human Aggrecanase-2 (Ag2t-Phe628-Strep) (Homo sapiens, UniProt Q9UNA0).
T2 construct: the form used is denoted as Ag2t-Phe628-Strep (MW=41,737)
T2 sequence (Q9UNA0 262-628): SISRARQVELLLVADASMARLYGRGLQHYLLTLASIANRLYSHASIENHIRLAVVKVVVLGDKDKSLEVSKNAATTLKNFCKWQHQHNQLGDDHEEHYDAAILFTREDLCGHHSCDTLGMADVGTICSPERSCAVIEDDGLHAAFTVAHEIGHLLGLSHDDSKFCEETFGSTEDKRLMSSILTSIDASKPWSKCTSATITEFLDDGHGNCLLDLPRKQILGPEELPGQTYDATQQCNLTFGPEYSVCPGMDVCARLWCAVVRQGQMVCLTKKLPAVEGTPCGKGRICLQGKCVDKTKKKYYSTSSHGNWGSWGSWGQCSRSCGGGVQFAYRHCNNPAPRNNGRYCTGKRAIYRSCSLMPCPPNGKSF
The test can be described thus: In vitro fluorescence screen for Aggrecanase-2 inhibitors. Conditions: for IC50: read-out: Agg 2 IC50; for Ki: read-out: Ki Agg2. It counts as biochemical.

The next test has as its target MMP-8 (Homo sapiens, UniProt P22894). Kind of test: MMP-8 of Table 3. The format is biochemical. Conditions: unit inferred.
A further test deals with MMP-12 (Homo sapiens, UniProt P39900). The test can be described thus: MMP-12 of Table 3. Conditions: unit inferred. It counts as biochemical.
Sequence of MMP-12 (P39900 106-470): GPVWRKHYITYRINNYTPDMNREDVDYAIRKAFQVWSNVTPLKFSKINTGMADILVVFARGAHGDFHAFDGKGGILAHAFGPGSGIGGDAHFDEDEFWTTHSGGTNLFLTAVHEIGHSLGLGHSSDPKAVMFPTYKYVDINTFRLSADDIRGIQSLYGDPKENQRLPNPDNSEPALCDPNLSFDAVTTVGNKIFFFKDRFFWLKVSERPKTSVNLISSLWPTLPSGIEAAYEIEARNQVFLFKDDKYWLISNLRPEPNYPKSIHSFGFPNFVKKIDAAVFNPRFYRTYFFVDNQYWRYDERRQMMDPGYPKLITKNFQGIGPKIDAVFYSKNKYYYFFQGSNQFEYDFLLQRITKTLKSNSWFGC
The next test has as its target T3, recombinant human MMP-2 (Homo sapiens, UniProt P08253).
T3 sequence (P08253 110-660): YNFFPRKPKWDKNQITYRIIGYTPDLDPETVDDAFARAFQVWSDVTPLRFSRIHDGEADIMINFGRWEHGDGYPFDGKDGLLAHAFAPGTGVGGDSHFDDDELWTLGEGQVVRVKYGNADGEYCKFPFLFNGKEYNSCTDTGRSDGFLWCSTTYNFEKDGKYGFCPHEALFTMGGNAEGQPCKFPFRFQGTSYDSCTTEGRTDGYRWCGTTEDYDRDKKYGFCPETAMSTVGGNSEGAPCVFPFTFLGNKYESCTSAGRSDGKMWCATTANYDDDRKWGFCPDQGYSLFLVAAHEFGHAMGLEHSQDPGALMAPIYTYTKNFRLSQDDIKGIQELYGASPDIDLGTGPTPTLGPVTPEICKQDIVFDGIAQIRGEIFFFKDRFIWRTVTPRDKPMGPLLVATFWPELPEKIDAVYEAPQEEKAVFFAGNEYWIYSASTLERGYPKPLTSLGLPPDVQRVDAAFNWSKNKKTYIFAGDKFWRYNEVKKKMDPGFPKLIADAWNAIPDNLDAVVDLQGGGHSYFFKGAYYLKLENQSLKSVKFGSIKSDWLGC
Kind of test: In vitro fluorescence assay of MMP-2 activity.

Test [3] has as its target T4, recombinant human catalytic domain of MMP-13 (Homo sapiens, UniProt P45452).
T4 construct: catalytic domain of MMP-13 (165 amino acids, residues 104-268, 19 kDa)
Kind of test: In vitro fluorescence assay of MMP-13 activity. It counts as biochemical. Conditions: Table 1; unit inferred.

Test [4] addresses T5, recombinant human catalytic domain of MMP-14 (Homo sapiens, UniProt P50281).
T5 construct: 177 amino acids corresponding to Tyr89-Gly265 of mature human enzyme; purchased Chemicon International, Inc. CC1041
Kind of test: In vitro fluorescence assay of MMP-14 activity. The format is biochemical. Particulars: Table 1; unit inferred.

Test [5] has as its system bovine articular cartilage treated with Interleukin 1 alpha (IL-1α). The test can be described thus: Bovine articular cartilage explant cultures: inhibition of degradation of proteoglycan. It counts as cell-based. Particulars: inhibitory effect expressed as percentage, concentration not printed. The method in brief: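 Bovine metacarpal cartilage discs (6 mm), equilibrated in serum-free DMEM-based medium, were treated with 5 ng/ml IL-1 plus compound (working solutions 0.1-10 μg/ml), with medium collected and replaced on days 1, 2 and 3. Released proteoglycan was measured by DMMB absorbance at 520 nm against chondroitin sulphate standards, expressed as μg per mg cartilage, and inhibition given as percentage.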

A further test addresses T6, MMP-1 (Homo sapiens, UniProt P03956).
T6 sequence (P03956 100-469): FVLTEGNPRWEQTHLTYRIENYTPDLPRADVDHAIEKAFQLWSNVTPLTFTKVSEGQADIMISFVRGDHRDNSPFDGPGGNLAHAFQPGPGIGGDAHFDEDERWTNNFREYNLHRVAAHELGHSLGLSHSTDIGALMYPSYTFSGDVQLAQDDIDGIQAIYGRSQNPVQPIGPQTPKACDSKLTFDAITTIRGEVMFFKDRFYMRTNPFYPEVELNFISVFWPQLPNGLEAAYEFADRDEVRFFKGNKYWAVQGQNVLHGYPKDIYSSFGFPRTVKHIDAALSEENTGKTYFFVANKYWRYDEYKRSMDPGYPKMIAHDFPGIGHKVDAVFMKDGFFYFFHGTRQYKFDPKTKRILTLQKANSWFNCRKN
Kind of test: MMP-1 of Table 1. It counts as biochemical. Conditions: for IC50: unit inferred.

Setting [6] is: Table 1, first of two columns headed bovine.
The mark [7] stands for this setting: Table 1, second of two columns headed bovine.

Where two headings read alike, the source gives them in different places. Some results are limits rather than exact numbers.

Sequence of MMP-8 (P22894 101-467, species assumed): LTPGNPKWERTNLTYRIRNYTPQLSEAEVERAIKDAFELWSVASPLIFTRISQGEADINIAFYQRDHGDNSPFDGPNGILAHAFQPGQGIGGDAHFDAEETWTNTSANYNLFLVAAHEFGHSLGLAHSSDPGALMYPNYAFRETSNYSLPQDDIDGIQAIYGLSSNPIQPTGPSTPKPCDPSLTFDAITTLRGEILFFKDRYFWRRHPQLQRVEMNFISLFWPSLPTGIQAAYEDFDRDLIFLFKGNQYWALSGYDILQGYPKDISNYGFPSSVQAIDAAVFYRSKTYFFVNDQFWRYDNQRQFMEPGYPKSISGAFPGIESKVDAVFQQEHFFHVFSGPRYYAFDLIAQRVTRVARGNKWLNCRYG

Turning to `CC(C)(Cc1ccc(F)cc1)NC(=O)[C@H](CCC(=O)O)NC(=O)c1ccc(-c2ccc(Cl)cc2)s1` [N^2-{[5-(4-chlorophenyl)-2-thienyl]carbonyl}-N-[2-(4-fluorophenyl)-1,1-dimethylethyl]-L-α-glutamine], the IC50 in [1] (Table 3) was less than 30 nM; in test [2] (Table 3), greater than 100 nM; at MMP-8, 3400 nM; at MMP-12, greater than 10000 nM; on recombinant human MMP-2 it was 8000 nM. In addition, the Ki in test [1] (Table 3, read-out: Ki Agg1) came to 11.7 nM; in [2] (Table 3) it was 405 nM.
Take `CC(C)(Cc1ccccc1)NC(=O)[C@H](CCC(=O)O)NC(=O)c1ccc(-c2ccc(Cl)cc2)s1` [N^2-{[5-(4-chlorophenyl)-2-thienyl]carbonyl}-N-(1,1-dimethyl-2-phenylethyl)-L-α-glutamine]: the concentration for half-maximal inhibition (IC50) was less than 30 nM in [1] (Table 3); 100 to 300 nM in [2] (Table 3); 2230 nM against MMP-8; 2240 nM at MMP-12; 6970 nM at recombinant human MMP-2. The Ki worked out at 28.9 nM in [1] (Table 3, read-out: Ki Agg1) and 204 nM in test [2] (Table 3).
As for `CC(C)(Cc1ccc(F)cc1)NC(=O)[C@H](CCC(=O)O)NC(=O)c1ccc(-c2ccc(Br)s2)cc1` [Example 8WWWWWW, N^2-[4-(5-bromo-2-thienyl)benzoyl]-N-[2-(4-fluorophenyl)-1,1-dimethylethyl]-L-α-glutamine], the IC50 in test [1] (Table 3) is less than 3 nM; in test [2] (Table 3) it was 50 nM; on MMP-8 it was 1000 nM; against MMP-12 it was 5800 nM; on recombinant human MMP-2 it was 2600 nM. Further, the Ki in test [1] (Table 3, read-out: Ki Agg1) was 7.1 nM; in test [2] (Table 3), 72 nM.
Regarding `CC(C)(Cc1ccc(Cl)s1)NC(=O)[C@H](CCC(=O)O)NC(=O)c1ccc(-c2cccc(F)c2)cc1` [Example 8XXXXXX, N-[2-(5-chloro-2-thienyl)-1,1-dimethylethyl]-N^2-[(3′-fluorobiphenyl-4-yl)carbonyl]-L-α-glutamine], the IC50 is less than 30 nM in test [1] (Table 3); 20 nM in test [2] (Table 3); 4100 nM against MMP-8; 1600 nM at MMP-12; 7500 nM on recombinant human MMP-2. Moreover, the inhibition constant (Ki) in test [1] (Table 3, read-out: Ki Agg1) is less than 3 nM; in test [2] (Table 3), 60 nM.
As to `CC(C)(Cc1ccc(Cl)cc1)NC(=O)[C@H](CCC(=O)O)NC(=O)c1ccc(-c2ccc(Cl)cc2)cc1` [Example 8XXXXXXXXX, N^2-[(4′-chlorobiphenyl-4-yl)carbonyl]-N-[2-(4-chlorophenyl)-1,1-dimethylethyl]-L-α-glutamine], the IC50 is less than 30 nM in test [1] (Table 3); 25 nM in [2] (Table 3); 1790 nM against MMP-8; 597 nM against MMP-12; 2610 nM at recombinant human MMP-2. The Ki in test [1] (Table 3, read-out: Ki Agg1) amounted to 18.2 nM; in test [2] (Table 3), 71.6 nM.
Consider `CC(C)(Cc1ccc(Cl)cc1)NC(=O)[C@H](CCC(=O)O)NC(=O)c1ccc(-c2cccc(Cl)c2)cc1` [N^2-[(3′-chlorobiphenyl-4-yl)carbonyl]-N-[2-(4-chlorophenyl)-1,1-dimethylethyl]-L-α-glutamine], for which the IC50 was less than 30 nM in test [1] (Table 3); 250 nM in test [2] (Table 3); 13200 nM against MMP-8; 3710 nM at MMP-12; 25500 nM at recombinant human MMP-2. Further, the Ki in test [1] (Table 3, read-out: Ki Agg1) was 39.6 nM; in [2] (Table 3) it was 349 nM.
For the compound `Cc1ccc(-c2ccc(C(=O)N[C@@H](CCC(=O)O)C(=O)NC(C)(C)Cc3ccc(F)cc3)cc2)s1` [Example 8VVVVVVV, N-[2-(4-fluorophenyl)-1,1-dimethylethyl]-N^2-[4-(5-methyl-2-thienyl)benzoyl]-L-α-glutamine], the IC50 is less than 30 nM in [1] (Table 3), 410 nM at MMP-8, 770 nM at MMP-12 and 570 nM at recombinant human MMP-2. In addition, the Ki in [1] (Table 3, read-out: Ki Agg1) came to 7 nM; in [2] (Table 3), 305 nM. Besides, the inhibition at 0.14 µM in test [2] (Table 3, at 140 (nM), read-out: Agg 2 % at concentration) was determined as 51%.
Take `COc1cccc(CNC(=O)[C@H](CCC(=O)O)NC(=O)c2ccc(-c3ccccc3)cc2)c1` [Example 8Q, N^2-(1,1′-biphenyl-4-ylcarbonyl)-N^1-(3-methoxybenzyl)-L-α-glutamine]: in [1] (Table 1, enzyme not given, column follows Agg1 IC50, read-out: Ki), the Ki worked out at 31 nM. In addition, the IC50 in test [1] (Table 1) is 11 nM; in [2] (Table 1), 400 nM; in test [3] it was 37300 nM; in test [4] it was roughly 22000 nM; on recombinant human MMP-2 it was 6100 nM. Besides, the bovine in test [5] (setting [6]) is listed as 66%; in test [5] (setting [7]), 24%. Moreover, the MMP-1 result at MMP-1 (unit not given) was “no inh”.
In the case of `COc1ccc(CCNC(=O)[C@H](CCC(=O)O)NC(=O)c2ccc(-c3ccccc3)cc2)cc1OC` [Example 8L, N^2-(1,1′-biphenyl-4-ylcarbonyl)-N^1-[2-(3,4-dimethoxyphenyl)ethyl]-L-α-glutamine], the IC50 is 55 nM in [1] (Table 1); 189 nM in test [2] (Table 1); roughly 50000 nM in test [3]; 21500 nM in test [4]; greater than 100000 nM against MMP-1; 10500 nM at recombinant human MMP-2. For the same compound, the values for the bovine in test [5] (setting [6]) and in [5] (setting [7]) were 87% and 79%, respectively.
Take `O=C(O)CC[C@H](NC(=O)c1ccc(-c2ccccc2)cc1)C(=O)NC1CC1` [Example 8B, N^2-(1,1′-biphenyl-4-ylcarbonyl)-N^1-cyclopropyl-L-α-glutamine]: the IC50 in [1] (Table 1) was 460 nM; in test [2] (Table 1), 1900 nM; in test [3] it was roughly 50000 nM; in test [4] it was roughly 25000 nM; at MMP-1 it was greater than 100000 nM; on recombinant human MMP-2, 5600 nM. Further, the bovine in test [5] (setting [6]) came to 54%; in test [5] (setting [7]), 22%.
